Measurements as given in patent publication US20240083917A1, “Polycyclic Kinase Inhibitor” (priority 2021, published 2024).

Target: DNA-PK (Homo sapiens (Human), UniProt P78527)
Experiment: In vitro enzymatic activity, ADP-Glo Kinase Assay
Format: biochemical
Details: starting concentration 1 μM, 10 concentrations
Experimental: Test substances: the compounds of the present disclosure, whose structural formulas and preparation methods are shown in the Examples.
1. Preparation of 1-Fold Kinase Buffer
1) The detection starting concentration of the compound was 1 μM, and it was prepared to a 100-fold concentration, namely 100 μM. 2 μl of […] was taken, 198 μl of 100% DMSO was added, and it was prepared into 100 μM compound solution. 100 μl of the compound of 100-fold concentration was added to a second well on a 96-well plate, and 60 μl of 100% DMSO was added to other wells. 30 μl of the compound was taken from the second well and added to a third well, it was diluted downwards sequentially by 3 times, and there was a total of 10 concentrations diluted.
2) 100 μl of 100% DMSO and positive control wortmannin with the highest concentration (400 nM) were transferred to two empty wells as a Max well and a Min well respectively.
3) 50 nl of the compound was transferred to a 384-well plate by Echo.
3. Preparation of 2× Kinase Solution
1) The 1-fold kinase buffer was used to prepare 2-fold DNA-PK kinase solution.
2) 2.5 μl of the 2-fold kinase solution was transferred to a reaction well of the 384-well plate.
3) It was shaken, mixed uniformly, and still placed at a room temperature.
4. Preparation of 2× Substrate Solution
1) The 1-fold kinase buffer was used to prepare 2-fold substrate solution.
2) 2.5 μl of the 2-fold substrate solution was transferred to the reaction well of the 384-well plate for a starting reaction.
3) It was shaken, and mixed uniformly.
5. Kinase Reaction and Termination
1) The 384-well plate was covered by a cover, and incubated at 28° C for 3 hours.
2) 5 μl of ADP-Glo reagent was transferred, and incubated at 28° C. for 2 hours.
6. Detection of Reaction Result
1) 10 μl of a kinase detection reagent was transferred into the reaction well of the 384-well plate for terminating the reaction.
2) It was still placed at the room temperature for 30 minutes.
Sample values were read on Envision.
8. Inhibition Rate Calculation
1) Data was copied from Envision.
2) It was converted into inhibition rate data.
Inhibition percentage=(max-conversion)/(max-min)*100. Wherein, max refers to the conversion rate of a DMSO control, min refers to the conversion rate of a control without enzyme activity, and conversion refers to the conversion rate of the test compound at each concentration.
3) The data was imported into MS Excel and XLFit excel add-in version 5.4.0.8 was used for curve fitting.

| Compound | IC50 |
| --- | --- |
| Cc1cc2ncnn2cc1Nc1ncc2c(n1)N1C(=NCC13CCSCC3)N2C [Compound 8, 5-methyl-N-(7-methyl-[1,2,4]triazolo[1,5-a]pyridin-6yl)-2′,3′,5,5′,6′,7-hexahydrospiro[imidazo[1,2-]purine-8,4′thiopyran]-2-amine] | 0.89 nM |
| Cc1cc2ncnn2cc1Nc1ncc2c(n1)N1C(=NCC13CCC(O)CC3)N2C (single isomer, unassigned) [Compound 7-1, 5′-methyl-2′-((7-methyl-[1,2,4]-triazolo[1,5-a]pyridin-6-yl)amino)-5′,7″-dihydrospiro[cyclohexane-1,8′-imidazo[1,2-e]purine]-4-ol] | 0.62 nM |
| Cc1cc2ncnn2cc1Nc1ncc2c(n1)N1C(=NCC1(C)CCO)N2C (stereo not shown) [Compound 17, 2-(5,8-dimethyl-2-((7-methyl-[1,2,4]-triazolo[1,5-a]pyridin-6-yl)amino)-7,8-dihydro-5H-imidazo[1,2-e]purin-8-yl) ethan-1-ol] | 9.8 nM |
| Cc1cc2ncnn2cc1Nc1ncc2c(n1)N1C(=NCC13CCOCC3)N2C [Compound 1, 5-methyl-N-(7-methyl-[1,2,4]triazolo[1,5-a]pyridin-6-yl)-2′,3′,5,5′,6′,7-hexanydrospiro[imidazo[1,2-e]purine-8,4′-pyran]-2-amine] | 0.82 nM |
| COC1CCC2(CC1)CN=C1N(C)c3cnc(Nc4cn5ncnc5cc4C)nc3N12 (single isomer, unassigned) [Compound 16-2, 4-methoxy-5′-methyl-N-(7-methyl-[1,2,4]triazolo[1,5-a]pyridin-6-yl)-5′,7′-dihydrospiro[cyclohexane-1,8′-imidazo[1,2-e]purin]-2′-amine] | 2.2 nM |
| COC1CCC2(CC1)CN=C1N(C)c3cnc(Nc4cn5ncnc5cc4C)nc3N12 (single isomer, unassigned) [Compound 16-1, 4-methoxy-5′-methyl-N-(7-methyl-[1,2,4]triazolo[1,5-a]pyridin-6-yl)-5′,7′-dihydrospiro[cyclohexane-1,8′-imidazo[1,2-e]purin]-2′-amine] | 3 nM |
| Cc1cc2ncnn2cc1Nc1ncc2c(n1)N1C(=NCC13CC[S+]([O-])CC3)N2C (stereo not shown) [Compound 20, 5-methyl-2-((7-methyl-[1,5-a]pyridin-6-yl)amino)-2′,3′,5,5′,6′,7-hexanydrospiro[imidazo[1,2-e]purine-8,4′-thiopyran]-1′-oxide] | 18.7 nM |
| Cc1cc2ncnn2cc1Nc1ncc2c(n1)N1C(=NCC13CCOC3)N2C (stereo not shown) [Compound 18, 5′-methyl-N-(7-methyl-[1,2,4]-triazolo[1,5-a]pyridin-6-yl)-4,5,5′,7′-tetrahydro-2-H-spiro[furan-3, 8′-imidazo[1,2-e]purin]-2′-amine] | 1.4 nM |
| Cc1cc2ncnn2cc1Nc1ncc2c(n1)N1C(=NCC13CCCCC3)N2C [Compound 4, 5′-methyl-N-(7-methyl-[1,2,4]triazolo[1,5-a]pyridin-6-yl)-5′,7′-dihydrospiro[cyclonexane-1,8′-imidazo[1,2-e]purine]-2′-amine] | 0.8 nM |
| COC1(C)CCC2(CC1)CN=C1N(C)c3cnc(Nc4cn5ncnc5cc4C)nc3N12 (stereo not shown) [Compound 15-1, 4-methoxy-4,5′-dimethyl-N-(7-methyl-[1,2,4]triazolo[1,5-a]pyridin-6H)-5′7′-dihydrospiro[cyclohexane-1,8′-imidazo[1,2-e]purin]-2′-amine] | 1.37 nM |
| Cc1cc2ncnn2cc1Nc1ncc2c(n1)N1C(=NCC13CCC(O)CC3)N2C (single isomer, unassigned) [Compound 7-2, 5′-methyl-2′-((7-methyl-[1,2,4]-triazolo[1,5-a]pyridin-6-yl)amino)-5′,7″-dihydrospiro[cyclohexane-1,8′-imidazo[1,2-e]purine]-4-ol] | 0.72 nM |
| Cc1cc2ncnn2cc1Nc1ncc2nc3n(c2n1)C1(CCOCC1)CN3C [Compound 2, 6-methyl-N-(7-methyl-[1,2,4]triazolo[1,5-a]pyridin-6yl)-2′,3′,5′,6,6′,7-hexahydrospiro[imidazo[1,2-e]purine-8,4′-pyran]-2-amine] | 22 nM |
| Cc1cc2ncnn2cc1Nc1ncc2c(n1)N1C(=NCC13CCS(=O)(=O)CC3)N2C [Compound 9, 5-methyl-2-((7-methyl-[1,2,4]-triazolo[1,5-a]pyridin-6-yl)amino)-2′,3′,5,5′,6′,7-hexahydrospiro[imidazo[1,2-e]purine-8,4′-thiopyran]1′,1′-dioxide] | 21 nM |
| Cc1cc2ncnn2cc1Nc1ncc2c(n1)N1C(=NC[C@]13CCCOCC3)N2C [Compound 19-2] | 1.7 nM |
| Cc1cc2ncnn2cc1Nc1ncc2nc3n(c2n1)C1(CCOCC1)CN3 [Compound 3, N-(7-methyl[1,2,4]-triazolo[1,5-a]pyridin-6-yl)-2′,3′,5′,6,6′,7-hexahydrospiro[imidazo[1,2-e]purine-8,4′-pyran]-2-amine] | 10.6 nM |
| Cc1cc2ncnn2cc1Nc1ncc2c(n1)N1C(=NCC13CCC(F)(F)CC3)N2C [Compound 5, 4,4-difluoro-5″-methyl-N-(7-methyl-[1,2,4]-triazolo[1,5-a]pyridin-6-yl)-5′,7′-dihydrospiro[cyclohexane-1,8′-imidazo[1,2-e]purine]-2′-amine] | 1.63 nM |
| Cc1cc2ncnn2cc1Nc1ncc2c(n1)N1C(=NCC13CCC(=O)CC3)N2C [Compound 6, 5′-methyl-2-((7-methyl-[1,2,4]-triazolo[1,5-a]pyridin-6-yl)amino)-5′,7′-dihydrospiro[cyclonexane-1,8′-imidazo[1,2-e]purine]-4-one] | 4.8 nM |
| Cc1cc2ncnn2cc1Nc1ncc2c(n1)N1C(=NCC13CCCOCC3)N2C (stereo not shown) [Compound 19, 5methyl-N-(7-methyl-[1,2,4]triazolo[1,5-a]pyridin-6-yl)-5,7-dihydrospiro[imidazo[1,2-e]purine-8,4′-oxepan]-2-amine] | 1.6 nM |
| Cc1cc2ncnn2cc1Nc1ncc2c(n1)N1C(=NC[C@@]13CCCOCC3)N2C [Compound 19-1] | 1.1 nM |
